Assay results from PMC10900215 (JACS Au, 2024).

How the values were obtained:
[1] = molecular target: T1, ternary complex CRBN/PROTAC/METTL3–14 (Homo sapiens, UniProt Q86U44+Q96SW2); assay: FRET-based ternary complex formation assay (TCFA); assay type: binding; details: for TCFA amplitude (mean ± SEM): Hook curve amplitude, fraction of the maximum of compound 16; for ECmax (nM) ± SD: PROTAC concentration at the maximum of the signal in the TCFA; for ECmax: TCFA, peak of the Hook curve
T1 construct: methyltransferase domains (MTD) of METTL3 (residues 354–580); His6 (N, cleaved yes); made in house; host or cells: METTL3-MTD/METTL14-MTD: baculovirus/Sf9; CRBN-TBD: E. coli Rosetta (DE3), co-expressed with BirA
T1 sequence (Q86U44 354-580): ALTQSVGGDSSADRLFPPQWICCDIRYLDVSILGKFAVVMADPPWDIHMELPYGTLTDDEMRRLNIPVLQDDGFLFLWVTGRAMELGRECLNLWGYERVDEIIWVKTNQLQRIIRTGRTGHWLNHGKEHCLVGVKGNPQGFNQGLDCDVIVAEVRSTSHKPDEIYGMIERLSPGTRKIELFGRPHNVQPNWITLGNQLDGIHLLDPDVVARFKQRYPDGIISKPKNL
T1 sequence (Q9HCE5 107-395 partner limits assumed): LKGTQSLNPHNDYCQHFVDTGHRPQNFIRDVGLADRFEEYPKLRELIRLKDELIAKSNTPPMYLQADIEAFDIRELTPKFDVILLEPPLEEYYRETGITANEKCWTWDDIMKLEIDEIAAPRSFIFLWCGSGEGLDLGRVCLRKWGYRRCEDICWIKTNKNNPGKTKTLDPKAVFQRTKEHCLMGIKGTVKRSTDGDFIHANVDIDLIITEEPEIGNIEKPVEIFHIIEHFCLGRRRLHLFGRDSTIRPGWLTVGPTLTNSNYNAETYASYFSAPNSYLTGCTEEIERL
T1 sequence (Q96SW2 318-442): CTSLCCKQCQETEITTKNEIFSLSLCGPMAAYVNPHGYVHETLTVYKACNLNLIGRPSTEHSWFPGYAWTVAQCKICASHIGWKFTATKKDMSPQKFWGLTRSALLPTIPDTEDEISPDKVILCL
Method: For protein expression, suspension cultures of Sf9 cells in […] medium (Thermo Fisher) were infected at a density of 2 × 10^6 mL^–1. […] The complex was further purified by size exclusion chromatography using a Superdex 200 Increase 10/300 GL column (Cytiva) in 20 mM Tris-Cl, pH 8.0, and 200 mM KCl. The complex was aliquoted and flash-frozen in liquid nitrogen and stored at −80 °C until further use.
Ternary complex formation between the PROTACs, METTL3, and CRBN was quantified by a homogeneous time-resolved fluorescence (HTRF)-based enzyme assay. […] Curves of titrations with the PROTACs were plotted in GraphPad Prism 9.5.1 and fitted with a Gaussian function, if appropriate. […] CRBN^TBD-Avi(biotin) was used at a final concentration of 10 nM. […] Anti-GST Eu^3+-labeled antibody (Cisbio, 61GSTKLB) was used at a final concentration of 0.8 nM. The final reaction volume was 20 μL in 50 mM HEPES (pH 7.5), 150 mM NaCl, 0.1% BSA, 100 mM KF. […] The ratio of the emissions [drawing 1] was considered for further analysis. […] The concentrations resulting in the maximum signal (ECmax) and the amplitudes of the Hook curves were determined from the parameters of the Gaussian fit (if appropriate) or as the coordinates of the data-point with the highest TR-FRET signal.
For the ternary complex formation assay (TCFA), one of the protein partners must have a GST-tag and the other a biotin-tag.

METTL3-14 = METTL3-14 (Homo sapiens, UniProt Q86U44); assay: biochemical; set-up: with the full-length complex, the recombinant complex construct pFastBacDual-StrepII-GFP-TEV-METTL3-His-TEV-METTL14 was expressed; StrepII (N); GFP (N); TEV site (N); made in house; host or cells: baculovirus/Sf9 insect cells; details: inhibition of catalytic activity of METTL3-14, binary FRET assay
Chain of METTL3-14 (Q86U44 whole entry): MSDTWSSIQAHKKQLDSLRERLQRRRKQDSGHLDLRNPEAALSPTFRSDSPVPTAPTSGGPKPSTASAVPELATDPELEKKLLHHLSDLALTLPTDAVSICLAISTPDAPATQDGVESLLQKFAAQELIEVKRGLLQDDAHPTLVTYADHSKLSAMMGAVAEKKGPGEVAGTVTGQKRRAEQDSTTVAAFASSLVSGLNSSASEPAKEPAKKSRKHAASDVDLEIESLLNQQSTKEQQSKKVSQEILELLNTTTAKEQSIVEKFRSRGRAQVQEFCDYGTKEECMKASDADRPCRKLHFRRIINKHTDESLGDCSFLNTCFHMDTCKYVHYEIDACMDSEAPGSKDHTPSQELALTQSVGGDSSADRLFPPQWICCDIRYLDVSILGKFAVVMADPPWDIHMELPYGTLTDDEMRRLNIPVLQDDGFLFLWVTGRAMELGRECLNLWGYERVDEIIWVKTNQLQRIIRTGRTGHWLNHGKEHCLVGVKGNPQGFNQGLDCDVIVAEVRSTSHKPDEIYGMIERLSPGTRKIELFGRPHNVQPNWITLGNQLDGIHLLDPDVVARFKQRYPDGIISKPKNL
Chain of METTL3-14 (Q9HCE5 whole entry, further chain): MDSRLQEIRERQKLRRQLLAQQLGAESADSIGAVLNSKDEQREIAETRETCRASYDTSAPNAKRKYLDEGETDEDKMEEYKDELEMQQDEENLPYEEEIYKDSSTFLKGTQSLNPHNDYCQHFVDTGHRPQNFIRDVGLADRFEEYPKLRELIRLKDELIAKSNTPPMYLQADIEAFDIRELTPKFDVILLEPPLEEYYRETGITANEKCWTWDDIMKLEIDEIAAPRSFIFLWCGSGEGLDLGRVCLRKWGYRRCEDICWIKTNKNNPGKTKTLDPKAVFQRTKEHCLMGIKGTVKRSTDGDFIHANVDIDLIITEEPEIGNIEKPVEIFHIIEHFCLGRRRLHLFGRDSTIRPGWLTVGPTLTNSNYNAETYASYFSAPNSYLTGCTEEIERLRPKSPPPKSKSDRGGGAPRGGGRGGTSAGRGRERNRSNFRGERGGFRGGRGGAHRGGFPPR
From the text: For determining the half maximal inhibitory concentration (IC50) with the full-length complex, the recombinant complex construct pFastBacDual-StrepII-GFP-TEV-METTL3-His-TEV-METTL14 was expressed using the baculovirus/Sf9 insect cell expression system and purified as described previously.[21]
The inhibitory potencies of the PROTACs for METTL3 were quantified by a homogeneous time-resolved fluorescence (HTRF)-based enzyme assay as previously described.[40]

METTL14 = assay: Cellular degradation assay (Western blot), METTL14 in MOLM-13; assay type: cell-based, human; details: MOLM-13, 24 h, 2 μM compound
Method: (§1) MOLM-13, NOMO-1, THP-1, Kasumi-1, PC3, and DU145 cell lines were obtained from DSMZ-German Collection of Microorganisms and Cell Cultures GmbH. Cells were cultured in RPMI 1640 medium (11875093, Thermo Fisher Scientific) containing 10% FBS (16140071, Thermo Fisher Scientific) and 1% penicillin-streptomycin (15140122, Thermo Fisher Scientific) in 5% CO2 at 37 °C in a humidified incubator, with maintained cell densities at 0.5–1 × 10^6 cells/mL. All cell lines were tested negative for mycoplasma contamination (PCR-based assay by Microsynth, Switzerland).
(§2) METTL3 (and METTL14) protein degradation was monitored by Western blot. Cells were treated with the indicated concentration of PROTACs or DMSO control (0.1% (v/v)) for 24h, 37 °C with 5% CO2. Samples were then collected and lysed with RIPA buffer with added protease inhibitors (11697498001, Roche). After SDS-PAGE, proteins were transferred to a nitrocellulose membrane, blocked (with 5% milk, 0.5% BSA in TBST buffer), and incubated overnight with primary antibodies. The following antibodies were used: GAPDH (no. 2118, Cell Signaling, 1:4000), β-actin (ab8226, Abcam, 1:2000), METTL3 (ab195352, Abcam, 1:1000), and METTL14 (ab220031, Abcam, 1:1000). Membranes were scanned using an LI-COR Odyssey DLx imager after incubation with appropriate secondary antibodies (antimouse IgG IRDye 680RD (926–68072, LI-COR, 1:10000) and goat anti-Rabbit IgG IRDye 800CW (926–32211, LI-COR, 1:10000)). Densitometry was performed in Image Studio Lite software and analyzed in GraphPad Prism 9.

METTL3 = molecular target: T2, METTL3 (Homo sapiens, UniProt Q86U44); assay: Cellular degradation assay (Western blot), METTL3 in MOLM-13; assay type: cell-based; details: MOLM-13, 24 h, 2 μM compound
T2 construct: METTL3–14 degradation up to 70% of the endogenous level; endogenous in cells; host or cells: MOLM-13, PC3, DU145
T2 sequence (Q86U44 2-580 limits assumed): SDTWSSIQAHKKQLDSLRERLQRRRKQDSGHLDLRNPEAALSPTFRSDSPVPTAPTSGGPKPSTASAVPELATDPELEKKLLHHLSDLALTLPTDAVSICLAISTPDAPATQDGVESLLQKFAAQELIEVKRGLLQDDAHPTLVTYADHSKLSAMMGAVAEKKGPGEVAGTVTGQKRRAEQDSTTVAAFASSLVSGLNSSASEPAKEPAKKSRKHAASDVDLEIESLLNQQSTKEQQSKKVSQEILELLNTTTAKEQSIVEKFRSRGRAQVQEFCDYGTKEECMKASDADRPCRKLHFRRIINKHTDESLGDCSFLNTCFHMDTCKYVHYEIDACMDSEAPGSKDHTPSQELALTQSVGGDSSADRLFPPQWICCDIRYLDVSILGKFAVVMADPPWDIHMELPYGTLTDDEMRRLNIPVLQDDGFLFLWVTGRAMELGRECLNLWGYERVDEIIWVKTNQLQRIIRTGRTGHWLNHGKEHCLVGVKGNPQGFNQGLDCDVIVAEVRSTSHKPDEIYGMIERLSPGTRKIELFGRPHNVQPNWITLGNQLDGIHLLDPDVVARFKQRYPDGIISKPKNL
T2 sequence (Q9HCE5 whole entry partner): as the sequence (Q9HCE5 whole entry, further chain) above
Method: as §1, §2

[2] = Cell viability assay (CellTiter-Glo) on MOLM-13; assay type: cell-based; details: human, MOLM-13 cells, 10 µM, average of two biological replicates
Method: as §1
Cell viability was determined using a CellTiter-Glo luminescent cell viability assay (Promega) based on the detection of ATP according to the manufacturer’s instructions. 100 μL of the reagent was added to each well and incubated for 10 min at room temperature. […] Background luminescence value was obtained from wells containing the CellTiter-Glo reagent and medium without cells. The resulting data was analyzed in GraphPad Prism 9.

Row | SMILES | TCFA amplitude (mean ± SEM) [1] | ECmax (nM) ± SD [1] | IC50 (METTL3-14) [nM] | MOLM-13 West. blot at 24h 2 μM comp conc. Degradation (%) of METTL14 (METTL14) | MOLM-13 West. blot at 24h 2 μM comp conc. Degradation (%) of METTL3 (METTL3) | ECmax [1] | viability at 72 h, 10 µM [2] [%]
1 | CC1(C)CCN(Cc2ccc(N3CC(=O)NC4(CCN(c5cc(NCCCNC(=O)CCCCCCCCCCn6cc(CNc7cccc8c7C(=O)N(C7CCC(=O)NC7=O)C8=O)nn6)ncn5)CC4)C3)cc2)CC1 (stereo not drawn) [Compound 8] | 0.6 | 2200 (n = 1) nM | 480 ± 100 | / (Degradation <10% or stabilization) | / (Degradation <10% or stabilization) |  | 
2 | CC1(C)CCN(Cc2ccc(N3CC(=O)NC4(CCN(c5cc(NCCCNC(=O)CCCCCCCCn6cc(CNc7cccc8c7C(=O)N(C7CCC(=O)NC7=O)C8=O)nn6)ncn5)CC4)C3)cc2)CC1 (stereo not drawn) [Compound 9] | 0.4 | 6700 (n = 1) nM | 1800 ± 290 | / (Degradation <10% or stabilization) | / (Degradation <10% or stabilization) |  | 
3 | CC1(C)CCN(Cc2cc(F)c(N3CC(=O)NC4(CCN(c5cc(NCCCNC(=O)CCCCCCCCNc6cccc7c6CN(C6CCC(=O)NC6=O)C7=O)ncn5)CC4)C3)cc2F)CC1 (stereo not drawn) [Compound 10] | 1.0 ± 0.0 | 200 ± 110 nM | 66 ± 10 | 18 ± 16% | 18 ± 6% | below 1 μM | 86.6
4 | CC1(C)CCN(Cc2cc(F)c(N3CC(=O)NC4(CCN(c5cc(NCCCNC(=O)CCCCCCCCCCNc6cccc7c6CN(C6CCC(=O)NC6=O)C7=O)ncn5)CC4)C3)cc2F)CC1 (stereo not drawn) [Compound 11] | 0.3 ± 0.0 | 910 ± 40 nM | 300 ± 40 | 17 ± 22% | / (Degradation <10% or stabilization) | below 1 μM | 84.6
5 | CC1(C)CCN(Cc2cc(F)c(N3CC(=O)NC4(CCN(c5cc(NCCCNC(=O)CCCCCCCCn6cc(CNc7cccc8c7C(=O)N(C7CCC(=O)NC7=O)C8=O)nn6)ncn5)CC4)C3)cc2F)CC1 (stereo not drawn) [Compound 12] | 0.7 ± 0.1 | 320 ± 160 nM | 67 ± 21 | 11 ± 27% | / (Degradation <10% or stabilization) | below 1 μM | 94.3
6 | CC1(C)CCN(Cc2cc(F)c(N3CC(=O)NC4(CCN(c5cc(NCCCNC(=O)CCCCCCCCCCn6cc(CNc7cccc8c7C(=O)N(C7CCC(=O)NC7=O)C8=O)nn6)ncn5)CC4)C3)cc2F)CC1 (stereo not drawn) [Compound 13] | 0.8 ± 0.0 | 1800 ± 250 nM | 220 ± 40 | 19 ± 13% | 19 ± 20% |  | 
